Results on one substance are retold here after publication PMC11394424, “The RAL Small G Proteins Are Clinically Relevant Targets in Triple Negative Breast Cancer” (Cancers, 2024).

The experiment concerns the target T1, RALA (Homo sapiens, UniProt P11233).
T1 construct: recombinant RALA, site-specifically biotinylated on the N-terminus
T1 sequence (P11233 1-203): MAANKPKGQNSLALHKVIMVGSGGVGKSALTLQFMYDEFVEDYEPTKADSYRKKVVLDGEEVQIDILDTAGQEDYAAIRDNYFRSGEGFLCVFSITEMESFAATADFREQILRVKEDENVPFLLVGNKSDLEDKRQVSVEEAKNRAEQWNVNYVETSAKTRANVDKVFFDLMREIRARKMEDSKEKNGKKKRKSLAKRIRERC
As to the kind of experiment: SPR (Biacore 8K, steady-state affinity, biotinylated RALA on SA chip). It is filed as binding. A general note: Surface plasmon resonance follows binding to a sensor surface in real time, without labels.

In turn, OSURALi showed a Kd of 948 nM.

By Kd is commonly meant the constant that tells how readily two partners part at equilibrium.
